# Reference: patent publication US20230219890A1, “BICYCLIC COMPOUNDS AND USE THEREOF” (Betta Pharmaceuticals Co.,Ltd, priority 2020, published 2023)
# pIC50: −log10 of the molar value.
# Test system: VEGFA (786-O cells)
# Assay: VEGFA ELISA Assay (IC50)
# Type: cell-based
# Settings: 24 hours incubation, VEGFA in culture supernatant by ELISA, class symbols
# Description: 786-O cells in exponential growth phase were seeded in 96-well plate, the cell concentration was 65,000 cells per milliliter of culture medium, 180 ul per well. Compounds were serial diluted to the indicated concentration, and 20 ul compound solutions of different concentrations were added to the corresponding cell wells. The final compound concentrations were as follows (nM): 1.5, 4.6, 13.7, 41.2, 123.5, 370.4, 1111.1, 3333.3, 10000. After 24 hours of incubation, the cell culture supernatant was taken, and the VEGFA concentration was determined using an ELISA kit (purchased from abcam). Finally, the reaction was terminated, and the light absorbance value of each well was measured using a microplate reader at a wavelength of […], and IC50 was calculated by GraphPad Prism. Cell Titer-Glo reagent was used to measure cell viability.
row,pIC50,Structure (SMILES)
1,< 5.82,"Fc1cc(Cl)cc(-n2cc(C(F)(F)F)c3c2CCc2cnoc2-3)c1 [Example 201, 6-(3-chloro-5-fluorophenyl)-8-(trifluoromethyl)-5,6-dihydro-4-H-isoxazolo[5,4-e]indole]"
2,5.00 to 5.82,OC1c2c(C(F)(F)F)cn(Cc3cc(F)cc(Cl)c3)c2CCC1(F)F (stereo not drawn) [Example 29]

# Same assay, conditions: Homo sapiens, 786-0, 24 h, 24 hours incubation, VEGFA in culture supernatant by ELISA, class symbols
row,Structure (SMILES),pIC50
1,CC1Cc2c(c(C(F)(F)F)cn2-c2ccc(F)c(C#N)c2)[C@H](O)C1(F)F (stereo partly drawn) [Example 180],5.82 to 6.30
2,"O=C1c2c(C(F)(F)F)cn(-c3ccc(F)c(C(F)F)c3)c2CCC1(F)F [Example 190, 1-(3-(difluoromethyl)-4-fluorophenyl)-5,5-difluoro-3-(trifluoromethyl)-1,5,6,7-tetrahydro-4H-indol-4-one]",5.82 to 6.30
3,"CC1Cc2c(c(C(F)(F)F)cn2-c2ccc(F)c(C#N)c2)C(O)C1(F)F (stereo not drawn) [Example 179, 5-(5,5-difluoro-4-hydroxy-6-methyl-3-(trifluoromethyl)-4,5,6,7-tetrahydro-1H-indol-1-yl)-2-fluorobenzonitrile]",5.82 to 6.30
4,"OC1c2c(C(F)(F)F)cn(-c3ccc(Cl)cc3)c2CC(F)C1F (stereo not drawn) [Example 130, l-(4-chlorophenyl)-5,6-difluoro-3-(trifluoromethyl)-4,5,6,7-tetrahydro-1H-indol-4-ol]",≥ 6.30
5,"OC1c2c(C(F)(F)F)cn(/C=C/c3ccccc3)c2CCC1(F)F (stereo not drawn) [Example 181, (E)-5,5-difluoro-1-styryl-3-(trifluoromethyl)-4,5,6,7-tetrahydro-1H-indol-4-ol]",5.00 to 5.82
6,OC1c2c(C(F)(F)F)cn(-c3cc(F)cc(Cl)c3)c2C(F)CC1F (stereo not drawn) [Example 141],≥ 6.30
7,OC1c2c(C(F)(F)F)cn(-c3ccc(F)c(F)c3)c2CCC1(F)F (stereo not drawn) [Example 164],≥ 6.30
8,OC1c2c(C(F)(F)F)cn(-c3ccc(F)nc3)c2CCC1(F)F (stereo not drawn) [Example 170],5.82 to 6.30
9,"N#Cc1ccc(-n2cc(C(F)(F)F)c3c2CCC(F)(F)C3O)cc1 (stereo not drawn) [Example 13, 4-(5,5-difluoro-4-hydroxy-3 (trifluoromethyl)-4,5,6,7-tetrahydro-1H-indol-1-yl)benzonitrile]",≥ 6.30
10,"Fc1cc(Cl)cc(-n2cc(C(F)(F)F)c3c2CCc2cn[nH]c2-3)c1 [Example 202, 6-(3-chloro-5-fluorophenyl)-8-(trifluoromethyl)-1,4,5,6-tetrahydropyrrolo-[2,3-g]indazole]",< 5.82
11,"N#Cc1cc(-n2cc(C(F)(F)F)c3c2CCC(F)(F)[C@@H]3F)ccc1F (single isomer, unassigned) [Example 197]",≥ 6.30
12,"N#Cc1cc(-n2cc(-c3cncs3)c3c2CCC(F)(F)C3O)ccc1F (stereo not drawn) [Example 54, 5-(5,5-difluoro-4-hydroxy-3-(thiazol-5-yl)-4,5,6,7-tetrahydro-1H-indol-1-yl)-2-fluorobenzonitrile]",5.82 to 6.30
13,"O=C1c2c(C(F)(F)F)cn(-c3cc(F)cc(Cl)c3)c2CCC1(F)F [Example 6, 1-(3-chloro-5-fluorophenyl)-5,5-difluoro-3-(trifluoromethyl)-1,5,6,7-tetrahydro-4H-indol-4-one]",5.82 to 6.30
14,OC1c2c(C(F)(F)F)cn(-c3cncc(F)c3)c2CCC1(F)F (stereo not drawn) [Example 133],5.82 to 6.30
15,"CS(=O)(=O)c1cn(-c2cc(F)cc(C#N)c2)c2c1C(O)C(F)CC2 (stereo not drawn) [Example 193, 3-fluoro-5-(5-fluoro-4-hydroxy-3-(methylsulfonyl)-4,5,6,7-tetrahydro-1H-indol-1-yl)benzonitrile]",≥ 6.30
16,"N#Cc1cc(F)cc(-n2cc(C(F)(F)F)c3c2CCCC3O)c1 (stereo not drawn) [Example 41, 3-fluoro-5-(4-hydroxy-3-(trifluoromethyl)-4,5,6,7-tetrahydo-1H-indol-1-yl)benzonitrile]",5.82 to 6.30
17,"OC1c2c(C(F)(F)F)nn(-c3cc(F)cc(F)c3)c2CCC1(F)F (stereo not drawn) [Example 88, 1-(3,5-difluorophenyl)-5,5-difluoro-3-(trifluoromethyl)-4,5,6,7-tetrahydro-1H-indazol-4-ol]",< 5.82
18,"OC1c2c(C(F)(F)F)cn(-c3cc(F)cc(Cl)c3)c2CCC1F (stereo not drawn) [Example 142, 1-(3-chloro-5-fluorophenyl)-5-fluoro-3-(trifluoromethyl)-4,5,6,7-tetrahydro-1H-indol-4-ol]",≥ 6.30
19,OC1c2c(C(F)(F)F)cn(-c3cc(F)cc(C(F)(F)F)c3)c2CCC1(F)F (stereo not drawn) [Example 24],≥ 6.30
20,"O[C@@H]1c2c(C(F)(F)F)cn(-c3ccc(F)c(C(F)F)c3)c2CCC1(F)F [Example 174, (R)-1-(3-(difluoromethyl)-4-fluorophenyl)-5,5-difluoro-3-(trifluoromethyl)-4,5,6,7-tetrahydro-1H-indol-4-ol]",5.82 to 6.30
21,"OC1c2c(C(F)(F)F)cn(-c3cncc(F)c3)c2CC(F)C1F (stereo not drawn) [Example 132, 5,6-difluoro-1-(5-fluoropyridin-3-yl)-3-(trifluoromethyl)-4,5,6,7-tetranydro-1H-indol-4-ol]",≥ 6.30
22,"OC1c2c(C(F)(F)F)cc(-c3cc(F)cc(F)c3)n2CCC1(F)F (stereo not drawn) [Example 76, 3-(3,5-difluorophenyl)-7,7-difluoro-1-(trifluoromethyl)-5,6,7,8-tetrahydroindolizin-8-ol]",≥ 6.30
23,"N#Cc1cc(F)cc(-n2cc(C(F)(F)F)c3c2CCC(F)C3O)c1 (stereo not drawn) [Example 139, 3-fluoro-5-(5-fluoro-4-hydroxy-3-(trifluoromethyl)-4,5,6,7-tetrahydro-1H-indol-1-yl)benzonitrile]",≥ 6.30
24,"N#CC1c2c(C(F)(F)F)cn(-c3ccc(F)cc3)c2CCC1(F)F (stereo not drawn) [Example 178, 5,5-difluoro-1-(4-fluorophenyl)-3-(trifluoromethyl)-4,5,6,7-tetrahydro-1H-indole-4-carbonitrile]",≥ 6.30

# Next, values leading:
row,pIC50,Structure (SMILES)
1,< 5.82,"OC1c2c(C(F)(F)F)nn(-c3cc(F)cc(Cl)c3)c2CCC1(F)F (stereo not drawn) [Example 90, 1-(3-chloro-5-fluorophenyl)-5,5-difluoro-3-(trifluoromethyl)-4,5,6,7-tetrahydro-1H-indazol-4-ol]"
2,≥ 6.30,"OC1c2c(C(F)(F)F)cn(-c3cc(F)cc(Cl)c3)c2CCC1(F)F (stereo not drawn) [Example 97, 1-(3-chloro-5-fluorophenyl)-5,5-difluoro-3-(trifluoromethyl)-4,5,6,7-tetrahydro-1H-indol-4-ol]"
3,≥ 6.30,"OC1c2c(-c3ccco3)cn(-c3cc(F)cc(Cl)c3)c2CCC1(F)F (stereo not drawn) [Example 53, 1-(3-chloro-5-fluorophenyl)-5,5-difluoro-3-(furan-2-yl)-4,5,6,7-tetrahydro-1H-indol-4-ol]"
4,5.82 to 6.30,"Cn1cccc1-c1cn(-c2cc(F)cc(Cl)c2)c2c1C(O)C(F)(F)CC2 (stereo not drawn) [Example 51, 1-(3-chloro-5-fluorophenyl)-5,5-difluoro-3-(1-methyl-1H-pyrrol-2-yl)-4,5,6,7-tetrahydro-1H-indol-4-ol]"
5,< 5.82,N#Cc1cc(F)cc(-n2nc(C(F)(F)F)c3c2CCC(F)(F)C3O)c1 (stereo not drawn) [Example 92]
6,≥ 6.30,"N#Cc1cn(-c2cc(F)cc(Cl)c2)c2c1C(O)C(F)(F)CC2 (stereo not drawn) [Example 96, 1-(3-chloro-5-fluorophenyl)-5,5-difluoro-4-hydroxyl-4,5,6,7-tetrahydro-1H-indol-3-carbonitrile]"
7,≥ 6.30,"CS(=O)(=O)c1cn(-c2cc(F)cc(Cl)c2)c2c1C(O)C(F)(F)CC2 (stereo not drawn) [Example 109, 1-(3-chloro-5-fluorophenyl)-5,5-difluoro-3-(methylsulfonyl)-4,5,6,7-tetrahydro-1H-indol-4-ol]"
8,≥ 6.30,"N#Cc1cc(Cl)cc(-n2cc(C(F)(F)F)c3c2CCC(F)(F)C3O)c1 (stereo not drawn) [Example 154, 3-chloro-5-(5,5-difluoro-4-hydroxy-3-(trifluoromethyl)-4,5,6,7-tetrahydro-1H-indol-1-yl)benzonitrile]"
9,≥ 6.30,"CS(=O)(=O)c1cn(-c2ccc(F)c(C#N)c2)c2c1[C@H](O)C(F)(F)CC2 [Example 134, (S)-5-(5,5-difluoro-4-hydroxy-3-(methylsulfonyl)-4,5,6,7-tetrahydro-1H-indol-1-yl)-2-fluorobenzonitrile]"
10,5.82 to 6.30,"N#Cc1cc(-n2cc(I)c3c2CCC(F)(F)C3O)ccc1F (stereo not drawn) [Example 5, 5-(5,5-difluoro-hydroxy-3-iodo-4,5,6,7-tetrahydro-1H-indol-1-yl)-2-fluorobenzonitrile]"

# Same assay, conditions: Homo sapiens, 786-0, 24 h, 24 hours incubation, VEGFA in culture supernatant by ELISA, numeric values
row,Structure (SMILES),pIC50
1,"OC1c2c(C(F)(F)F)cc(-c3cc(F)cc(Cl)c3)n2CCC1(F)F (stereo not drawn) [Example 71, 3-(3-chloro-5-fluoropheny1)-7,7-difluoro-1-(trifluoromethyl)-5,6,7,8-tetrahydroindolizin-8-ol]",7.86
2,"OC1c2c(C(F)(F)F)cn(-c3ccc(F)cc3)c2CCC1(F)F (stereo not drawn) [Example 160, 5,5-difluoro-1-(4-fluorophenyl)-3-(trifluoromethyl)-4,5,6,7-tetrahydro-1H-indol-4-ol]",7.34
3,"N#Cc1cc(F)cc(-c2cc(C(F)(F)F)c3n2CCC(F)(F)C3O)c1 (stereo not drawn) [Example 77, 3-(7,7-difluoro-8-hydroxy-1-(trifluoromethyl)-5,6,7,8-tetrahydroindolizin-3-yl)-5-fluorobenzonitrile]",7.79

# Next, values leading:
row,pIC50,Structure (SMILES)
1,7.37,"N#Cc1ccc(-n2cc(C(F)(F)F)c3c2CCC(F)(F)C3O)cc1F (stereo not drawn) [Example 122, 4-(5,5-difluoro-4-hydroxy-3-(trifluoromethyl)-4,5,6,7-tetrahydro-1H-indol-1-yl)-2-fluorobenzonitrile]"
2,7.26,OC1c2c(C(F)(F)F)cn(-c3cc(F)cc(Br)c3)c2CCC1(F)F (stereo not drawn) [Example 22]
3,7.38,N#Cc1cc(-n2cc(C(F)(F)F)c3c2CCC(F)(F)C3O)ccc1Cl (stereo not drawn) [Example 137]
